{
  "source": "patent US20070042056A1",
  "about": "“Anti-stress agent” (priority 2003, published 2007)",
  "key": {"GABA receptor [1]": {"system": "GABA receptor", "test": "In vitro GABA receptor-activating activity, Xenopus oocyte expressing GABA receptor, voltage clamp", "assay_type": "cell-based, rat", "settings": "for GABA response to GABA receptor, relative value of inhibitory potential vs GABA only (set at 100%): GABA 5 μM", "protocol": "As an experimental material, an oocyte of Xenopus was used. A rat-derived GABA receptor mRNA was injected into the nucleus of an oocyte to express GABA receptor on the surface of the egg. The oocyte was cultured in a normal Ringer's solution for frog (115 mM NaCl, 1 mM KCl, 1.8 mM CaCl2, 5 mM Tris, pH 7.2). Using the resulting oocyte, inhibitory potential of GABA (10 μM) and inhibitory potential of a mixed solution of GABA (10 μM) and the below mentioned sample were measured. Generation of inhibitory potential was measured by voltage clamp method using a voltage clamping amplifier (CEZ-1100; manufactured by NIHON KODEN CORPORATION).\nAs a sample, the following 9 kinds of aroma components contained in coffee or teas were used in a concentration of 2 μl/ml. Samples used are as follows: 2-methyl-3-buten-2-ol (expressed by 2-M3BOL in FIG. 1), 3-methyl-2-buten-1-ol (expressed by 3-M2BOL in FIG. 1), 1-penten-3-ol (expressed by 1-POL in FIG. 1), (E)-2-hexen-1-ol (expressed by HXOL in FIG. 1), 1-octen-3-ol (expressed by 1-OCOL in FIG. 1), sotolone (expressed by STOL in FIG. 1), 2,4-dimethylstyrene (expressed by 2,4-DMS in FIG. 1), benzothiazole (expressed by BZT in FIG. 1) and 2,3,5-trimethylphenol (expressed by 2,3,5-TEP in FIG. 1). The aforementioned samples used in the experiment were commercially available products. That is, sotolone manufactured by Ogawa & Co., Ltd. and other compounds manufactured by Tokyo Kasei Co., Ltd. were used.\nAs an index, enhancing activity of the sample on inhibitory potential induced by GABA was used. The results are expressed by % increase of the inhibitory potential when GABA and a sample were used in combination, relative to the inhibitory potential generated when only GABA (0.25 μM) was added (set at 100%).\nDose dependency of 1-octen-3-ol which had been recognized to have a strong activity in Example 1 was studied. The experimental procedures were entirely the same as those of Example 1. The concentration of GABA was 5 μM, and the concentration of 1-octen-3-ol was 0.3 to 1 mM. […] The results shown in FIG. 2 are expressed by the relative value of the inhibitory potential when GABA and 1-octen-3-ol were used in combination, compared to the inhibitory potential generated when only GABA (5 μM) was added (set at 100%).\nAs an experimental material, an oocyte of Xenopus was used. A rat-derived GABA receptor mRNA was injected into the nucleus of an oocyte to express GABA receptor on the surface of an egg. The oocyte was cultured in a normal Ringer's solution for frog (115 mM NaCl, 1 mM KCl, 1.8 mM CaCl2, 5 mM Tris, pH 7.2). Generation of the inhibitory potential induced by GABA (0.25 μM) was measured by voltage clamp method using a voltage clamping amplifier (CEZ-1100; manufactured by Nihon Koden corporation).\nAs samples, the below-mentioned 4 kinds of aroma components of oolong tea were used in a concentration of 0.5 mM. The samples used are as follows: cis-jasmone, methyl jasmonate, jasmine lactone and linalool oxide.\nDose dependency of cis-jasmone and methyl jasmonate which had been recognized to have a strong activity in Example 4 was studied. The experimental procedures were entirely the same as those of Example 4. The concentration of GABA was 5 μM, and the concentrations of cis-jasmone and methyl jasmonate were 0.2 to 1 mM. […] The results shown in FIG. 5 are expressed by the relative value of the inhibitory potential when GABA and cis-jasmone and methyl jasmonate were used in combination compared to the inhibitory potential generated when only GABA (5 μM) was added (set at 100%)."}, "ddy male mice": {"system": "ddy male mice", "test": "Enhancing activity on pentobarbital-induced sleep (duration of the sleeping time)", "assay_type": "in vivo", "protocol": "As a test animal, ddy male mice (8-week age) were purchased from Shimizu Laboratory Supplies Co., Ltd., pre-bred for one week and used in the experiment. Each five of the mice were bred in a polyisopentene cage (manufactured by Clea Japan. Inc.) in a breeding chamber where the breeding conditions were set at room temperature of 23±2° C., humidity of 55±5%, ventilation frequency of 12 to 15/hour (all fresh air ventilation), and lighting hours of 12 hours/day (from 7 a.m. to 7 p.m.). The mice were fed solid feed CE-2 (Clea Japan Inc.) and were allowed free access to water.\n1-Octen-3-ol dissolved in olive oil was orally administered to a mouse at a dose of 20 or 100 mg/kg. In each group, 8 mice were used. Thirty minutes later, pentobarbital dissolved in physiological saline was intraperitoneally administered at a dose of 50 mg/kg, and duration of the sleeping time was measured. The sleeping time was defined as the time period from the loss of righting reflex until its recovery.\nThe experimental results shown in FIG. 3 are expressed by average±standard error, and Student t-test was used in a significant difference test.\nAs a test animal, ddy male mice (8-week age) were purchased from Shimizu Laboratory Supplies Co., pre-bred for one week, and used in the experiment. Each five of the mice were bred in a polyisopentene cage (manufactured by Clea Japan. Inc.) in a breeding chamber where the breeding conditions were set at room temperature of 23±2° C., humidity of 55±5%, ventilation frequency of 12 to 15/hour (all fresh air ventilation) and lighting hours of 12 hours a day (from 7 a.m. to 7 p.m.). The mice were fed solid feed CE-2 (Clea Japan. Inc.) and were allowed free access to water.\nA mouse was made to aspirate cis-jasmone and methyl jasmonate diluted to 0.1% in an exposure box until the completion of the experiment. In each group, 5 mice were used. Thirty minutes after initiation of aspiration, pentobarbital dissolved in physiological saline was intraperitoneally administered at a dose of 50 mg/kg, and duration of the sleeping time was measured. […]"}, "rat": {"system": "rat", "settings": "cited from earlier work; for development of gastric ulcer: cold-restraint stress (4° C., 2 hours), intraventricular administration"}, "GABA receptor [2]": {"system": "GABA receptor", "settings": "Biosci. Biotechnol. Biochem., 63, 743-748, 1999; cited from earlier work"}, "[3]": {"settings": "1998-1999 Scientific Research Subsidy Research Outcome Report; cited from earlier work"}, "[4]": {"settings": "Example 4, FIG. 4, sample 0.5 mM, GABA 0.25 μM"}, "[5]": {"settings": "Example 5, FIG. 5, sample 0.2 to 1 mM"}, "[6]": {"settings": "Example 6, FIG. 6, aspiration of sample diluted to 0.1% in exposure box, pentobarbital 50 mg/kg i.p. after 30 min"}},
  "data": [
    {"smiles": "CC/C=C\\CC1C(=O)CCC1CC(=O)OC", "note": "(centres unmarked) [methyl jasmonate]", "values": [
      {"measurement": "enhancing activity of the sample on inhibitory potential induced by GABA", "setting": "GABA receptor [1]; [4]", "value": "activity to enhance the response"},
      {"measurement": "GABA response to GABA receptor, relative value of inhibitory potential vs GABA only (set at 100%)", "setting": "GABA receptor [1]; [5]", "value": "≤ 300", "unit": "%"},
      {"measurement": "duration of the sleeping time induced by pentobarbital", "setting": "ddy male mice; [6]", "value": "significantly extended duration of the sleeping time"}
    ]},
    {"smiles": "NCCCC(=O)O", "note": "[GABA]", "values": [
      {"measurement": "development of gastric ulcer", "setting": "rat", "value": "suppressed in a dose dependent manner"}
    ]},
    {"smiles": "NCc1cc(=O)[nH]o1", "note": "[Muscimol]", "values": [
      {"measurement": "development of gastric ulcer", "setting": "rat", "value": "suppressed in a dose dependent manner"}
    ]},
    {"smiles": "C=CC(O)CCCCC", "note": "(centres unmarked) [1-octen-3-ol]", "values": [
      {"measurement": "enhancing activity of the sample on inhibitory potential induced by GABA", "setting": "GABA receptor [1]; Example 1, FIG. 1, sample 2 μl/ml, GABA 10 μM / 0.25 μM", "value": "strong activity to enhance the response"},
      {"measurement": "GABA response to GABA receptor, relative value of inhibitory potential vs GABA only (set at 100%)", "setting": "GABA receptor [1]; Example 2, FIG. 2, 1-octen-3-ol 0.3 to 1 mM", "value": "up to 400%"},
      {"measurement": "duration of the sleeping time induced by pentobarbital", "setting": "ddy male mice; Example 3, FIG. 3, orally 20 or 100 mg/kg in olive oil, 30 min before pentobarbital 50 mg/kg i.p.", "value": "extended duration of the sleeping time induced by pentobarbital in a dose dependent manner"}
    ]},
    {"smiles": "CCCCCCO", "note": "[hexanol]", "values": [
      {"measurement": "GABA receptor-activating activity", "setting": "GABA receptor [2]", "value": "has GABA receptor-activating activity"},
      {"measurement": "stress relaxing activity", "setting": "[3]", "value": "stress relaxing activity"}
    ]},
    {"smiles": "CN1CCc2cc3c(cc2[C@H]1[C@@H]1OC(=O)c2c1ccc1c2OCO1)OCO3", "note": "[bicuculine]", "values": [
      {"measurement": "effect on the inhibitory effect of GABA on stress ulceration", "setting": "rat; cold-restraint stress, bicuculine 40 μg", "value": "diminishes the inhibitory effect of GABA on stress ulceration"}
    ]},
    {"smiles": "CC/C=C\\CC1=C(C)CCC1=O", "note": "[cis-jasmone]", "values": [
      {"measurement": "enhancing activity of the sample on inhibitory potential induced by GABA", "setting": "GABA receptor [1]; [4]", "value": "activity to enhance the response"},
      {"measurement": "GABA response to GABA receptor, relative value of inhibitory potential vs GABA only (set at 100%)", "setting": "GABA receptor [1]; [5]", "value": "up to 200%"},
      {"measurement": "duration of the sleeping time induced by pentobarbital", "setting": "ddy male mice; [6]", "value": "significantly extended duration of the sleeping time"}
    ]}
  ]
}
